Data on 28 compounds can be found in patent US10550105B2 (Ribon Therapeutics Inc., priority 2018, dated 2020).

pIC50: −log10 of the molar value. Where only a bound is given, the exact number is not on record here.

Chain of PARP7 (Q7Z3E1 whole entry): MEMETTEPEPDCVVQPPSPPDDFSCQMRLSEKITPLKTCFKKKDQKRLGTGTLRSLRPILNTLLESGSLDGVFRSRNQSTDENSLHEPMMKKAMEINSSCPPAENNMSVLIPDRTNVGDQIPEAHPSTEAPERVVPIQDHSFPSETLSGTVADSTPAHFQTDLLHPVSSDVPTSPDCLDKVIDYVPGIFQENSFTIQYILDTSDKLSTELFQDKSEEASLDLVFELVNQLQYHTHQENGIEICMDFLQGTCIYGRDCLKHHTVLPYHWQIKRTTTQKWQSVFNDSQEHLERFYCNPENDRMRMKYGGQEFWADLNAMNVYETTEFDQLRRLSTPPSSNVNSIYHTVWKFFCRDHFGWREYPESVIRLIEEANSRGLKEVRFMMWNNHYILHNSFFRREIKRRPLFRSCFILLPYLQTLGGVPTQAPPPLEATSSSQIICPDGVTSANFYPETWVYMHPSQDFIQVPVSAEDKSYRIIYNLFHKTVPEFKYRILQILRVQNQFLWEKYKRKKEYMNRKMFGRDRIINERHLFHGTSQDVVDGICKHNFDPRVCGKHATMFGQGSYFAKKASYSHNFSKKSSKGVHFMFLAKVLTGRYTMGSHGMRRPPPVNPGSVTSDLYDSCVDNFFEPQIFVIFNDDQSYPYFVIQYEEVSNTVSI

In this assay the target is PARP7 (Homo sapiens (Human), UniProt Q7Z3E1). Nature of the assay: Enzymatic assay for inhibition of PARP7: TR-FRET displacement of biotinylated Probe A from the TIPARP active site. The conditions noted are these: Table A-1. In kind it is binding. In a few lines:
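Titrated compounds compete with the biotinylated probe; after an additional 30 min incubation at 25° C, time-delayed fluorescence (90 μs) is measured. Inhibition curves use a Hill coefficient that normally floats but may be held at 1.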
(TR-FRET usually uses a lanthanide donor and a delayed reading to cut background.)
Regarding `O=C(CCOCCOc1cn[nH]c(=O)c1C(F)(F)F)N1CCN(c2ncc(C(F)(F)F)cn2)CC1` [Example 534, 5-[2-(3-Oxo-3-[4-[5-(trifluoromethyl)pyrimidin-2-yl]piperazin-1-yl]propoxy)ethoxy]-4-(trifluoromethyl)-2,3-dihydropyridazin-3-one], the pIC50 (usually the negative decadic logarithm of the IC50, by convention in mol/L) was over 7.00.
The result for `O=C(CCOCCOc1cn[nH]c(=O)c1C(F)(F)F)N1CCN(c2ccc(Cl)cn2)CC1` [Example 535, 5-(2-[3-[4-(5-Chloropyridin-2-yl)piperazin-1-yl]-3-oxopropoxy]ethoxy)-4-(trifluoromethyl)-2,3-dihydropyridazin-3-one] reads over 7.00; that for `O=C(CCOCCOc1cn[nH]c(=O)c1C(F)(F)F)N1CCN(c2ccc(C(F)(F)F)cn2)CC1` [Example 536, 5-[2-(3-Oxo-3-[4-[5-(trifluoromethyl)pyridin-2-yl]piperazin-1-yl]propoxy)ethoxy]-4-(trifluoromethyl)-2,3-dihydroyridazin-3-one], over 7.00.
The result for `N#Cc1ccc(N2CCN(C(=O)CCOC3Cc4ccccc4C3Oc3cn[nH]c(=O)c3C(F)(F)F)CC2)nc1` (stereo not shown) [Example 540, 6-(4-[3-[(1-[[6-Oxo-5-(trifluoromethyl)-1,6-dihydropyridazin-4-yl]oxy]-2,3-dihydro-1H-inden-2-yl)oxy]propanoyl]piperazin-1-yl)pyridine-3-carbonitrile] reads 6.00 to 7.00; that for `N#Cc1ccc(N2CCN(C(=O)CCO[C@H]3CC[C@H]3Nc3cn[nH]c(=O)c3C(F)(F)F)CC2)nc1` [Example 541, 6-(4-[3-[(1S,2R)-2-[[6-Oxo-5-(trifluoromethyl)-1,6-dihydropyridazin-4-yl]amino]cyclobutoxy]propanoyl]piperazin-1-yl)pyridine-3-carbonitrile], over 7.00; that for `CN(C)CC(COCCC(=O)N1CCN(c2ccc(C#N)cn2)CC1)Oc1cn[nH]c(=O)c1C(F)(F)F` (stereo not shown) [Example 542, 6-(4-[3-[3-(Dimethylamino)-2-[[6-oxo-5-(trifluoromethyl)-1,6-dihydropyridazin-4-yl]oxy]propoxy]propanoyl]piperazin-1-yl)pyridine-3-carbonitrile], over 7.00.
The result for `C[C@H](COCCC(=O)N1CCN(c2ncc(Cl)cn2)CC1)Oc1cn[nH]c(=O)c1C(F)(F)F` [Example 543 Isomer D, (R)-5-(1-(3-(4-(5-chloropyrimidin-2-yl)piperazin-1-yl)-3-oxopropoxy)propan-2-yloxy)-4-(trifluoromethyl)pyridazin-3(2H)-one] reads 6.00 to 7.00; that for `O=C(CCOCCOc1cn[nH]c(=O)c1Br)N1CCN(c2ncc(Cl)cn2)CC1` [Example 547, 4-Bromo-5-(2-[3-[4-(5-chloropyrimidin-2-yl)piperazin-1-yl]-3-oxopropoxy]ethoxy)-2,3-dihydropyridazin-3-one], over 7.00.
With `O=C(CCOCCOc1cn[nH]c(=O)c1Br)N1CCN(c2ncc(C(F)(F)F)cn2)CC1` [Example 548, 4-Bromo-5-[2-(3-oxo-3-[4-[5-(trifluoromethyl)pyrimidin-2-yl]piperazin-1-yl]propoxy)ethoxy]-2,3-dihydropyridazin-3-one], the pIC50 is over 7.00.
`Cc1c(OCCOCCC(=O)N2CCN(c3ncc(Cl)cn3)CC2)cn[nH]c1=O` [Example 549, 5-(2-[3-[4-(5-Chloropyrimidin-2-yl)piperazin-1-yl]-3-oxopropoxy]ethoxy)-4-methyl-2,3-dihydropyridazin-3-one]: the pIC50 was over 7.00.
The result for `Cc1c(OCCOCCC(=O)N2CCN(c3ncc(C(F)(F)F)cn3)CC2)cn[nH]c1=O` [Example 550, 4-Methyl-5-[2-(3-oxo-3-[4-[5-(trifluoromethyl)pyrimidin-2-yl]piperazin-1-yl]propoxy)ethoxy]-2,3-dihydropyridazin-3-one] reads over 7.00; that for `Cc1c(OCCOCCC(=O)N2CCN(c3ccc(C#N)cn3)CC2)cn[nH]c1=O` [Example 551, 6-[4-(3-[2-[(5-Methyl-6-oxo-1,6-dihydropyridazin-4-yl)oxy]ethoxy]propanoyl)piperazin-1-yl]pyridine-3-carbonitrile], over 7.00.
In turn, `N#Cc1c(OCCOCCC(=O)N2CCN(c3ncc(Cl)cn3)CC2)cn[nH]c1=O` [Example 552, 5-(2-[3-[4-(5-Chloropyrimidin-2-yl)piperazin-1-yl]-3-oxopropoxy]ethoxy)-3-oxo-2,3-dihydropyridazine-4-carbonitrile] had a pIC50 of over 7.00.
The result for `N#Cc1c(OCCOCCC(=O)N2CCN(c3ncc(C(F)(F)F)cn3)CC2)cn[nH]c1=O` [Example 553, 3-Oxo-5-[2-(3-oxo-3-[4-[5-(trifluoromethyl)pyrimidin-2-yl]piperazin-1-yl]propoxy)ethoxy]-2,3-dihydropyridazine-4-carbonitrile] reads over 7.00; that for `N#Cc1ccc(N2CCN(C(=O)CCOCCOc3cn[nH]c(=O)c3C#N)CC2)nc1` [Example 554, 5-(2-[3-[4-(5-Cyanopyridin-2-yl)piperazin-1-yl]-3-oxopropoxy]ethoxy)-3-oxo-2,3-dihydropyridazine-4-carbonitrile], over 7.00; that for `N#Cc1ccc(N2CCN(C(=O)CCOCCOc3cn[nH]c(=O)c3Br)CC2)nc1` [Example 555, 6-[4-(3-[2-[(5-Bromo-6-oxo-1,6-dihydropyridazin-4-yl)oxy]ethoxy]propanoyl)piperazin-1-yl]pyridine-3-carbonitrile], over 7.00.
The result for `C[C@H](COCCC(=O)N1CCN(c2ncc(Cl)cn2)CC1)Nc1cn[nH]c(=O)c1C(F)(F)F` [Example 556, 5-[[(2R)-1-[3-[4-(5-Chloropyrimidin-2-yl)piperazin-1-yl]-3-oxopropoxy]propan-2-yl]amino]-4-(trifluoromethyl)-2,3-dihydropyridazin-3-one] reads 6.00 to 7.00; that for `COC[C@H](COCCC(=O)N1CCN(c2ncc(Cl)cn2)CC1)Nc1cn[nH]c(=O)c1C(F)(F)F` [Example 557, 5-[[(2R)-1-[3-[4-(5-Chloropyrimidin-2-yl)piperazin-1-yl]-3-oxopropoxy]-3-methoxypropan-2-yl]amino]-4-(trifluoromethyl)-2,3-dihydropyridazin-3-one], over 7.00.
`COC[C@@H](COCCC(=O)N1CCN(c2ncc(Cl)cn2)CC1)Nc1cn[nH]c(=O)c1C(F)(F)F` [Example 558, 5-[[(2S)-1-[3-[4-(5-Chloropyrimidin-2-yl)piperazin-1-yl]-3-oxopropoxy]-3-methoxypropan-2-yl]amino]-4-(trifluoromethyl)-2,3-dihydropyridazin-3-one] gave a pIC50 of over 7.00.
`COC[C@@H](COCCC(=O)N1CCN(c2ncc(C(F)(F)F)cn2)CC1)Nc1cn[nH]c(=O)c1C(F)(F)F` [Example 559, 5-[[(2S)-1-Methoxy-3-(3-oxo-3-[4-[5-(trifluoromethyl)pyrimidin-2-yl]piperazin-1-yl]propoxy)propan-2-yl]amino]-4-(trifluoromethyl)-2,3-dihydropyridazin-3-one] had a pIC50 of over 7.00.
The result for `C[C@@H](COCCC(=O)N1CCN(c2ncc(Cl)cn2)CC1)Nc1cn[nH]c(=O)c1C(F)(F)F` [Example 562, 5-[[(2S)-1-[3-[4-(5-Chloropyrimidin-2-yl)piperazin-1-yl]-3-oxopropoxy]propan-2-yl]amino]-4-(trifluoromethyl)-2,3-dihydropyridazin-3-one] reads over 7.00; that for `C[C@@H](COCCC(=O)N1CCN(c2ccc(Cl)cn2)CC1)Nc1cn[nH]c(=O)c1C(F)(F)F` [Example 563, 5-[[(2S)-1-[3-[4-(5-Chloropyridin-2-yl)piperazin-1-yl]-3-oxopropoxy]propan-2-yl]amino]-4-(trifluoromethyl)-2,3-dihydropyridazin-3-one], over 7.00; that for `C[C@@H](COCCC(=O)N1CCN(c2ccc(C(F)(F)F)cn2)CC1)Nc1cn[nH]c(=O)c1C(F)(F)F` [Example 564, 5-[[(2S)-1-(3-Oxo-3-[4-[5-(trifluoromethyl)pyridin-2-yl]piperazin-1-yl]propoxy)propan-2-yl]amino]-4-(trifluoromethyl)-2,3-dihydropyridazin-3-one], over 7.00.
As to `O=C(C[C@H]1CC[C@@H](CNc2cn[nH]c(=O)c2C(F)(F)F)O1)N1CCN(c2ncc(C(F)(F)F)cn2)CC1` [Example 568 Isomer C, 5-((((2S,5R)-5-(2-Oxo-2-(4-(5-(trifluoromethyl)pyrimidin-2-yl)piperazin-1-yl)ethyl)tetrahydrofuran-2-yl)methyl)amino)-4-(trifluoromethyl)pyridazin-3(2H)-one], the pIC50 was over 7.00.
The result for `O=C(C[C@@H]1CC[C@H](CNc2cn[nH]c(=O)c2C(F)(F)F)O1)N1CCN(c2ncc(C(F)(F)F)cn2)CC1` [Example 568 Isomer D, 5-((((2R,5S)-5-(2-Oxo-2-(4-(5-(trifluoromethyl)pyrimidin-2-yl)piperazin-1-yl)ethyl)tetrahydrofuran-2-yl)methyl)amino)-4-(trifluoromethyl)pyridazin-3(2H)-one] reads over 7.00.
The result for `CC(CC(=O)N1CCN(c2ccc(C#N)cn2)CC1)OC[C@@H](C)Oc1cn[nH]c(=O)c1C(F)(F)F` (stereo partly drawn) [Example 569, 6-(4-[3-[(2R)-2-[[6-Oxo-5-(trifluoromethyl)-1,6-dihydropyridazin-4-yl]oxy]propoxy]butanoyl]piperazin-1-yl)pyridine-3-carbonitrile] reads 6.00 to 7.00; that for `O=C(C[C@H]1CC[C@@H](COc2cn[nH]c(=O)c2C(F)(F)F)O1)N1CCN(c2ncc(C(F)(F)F)cn2)CC1` [Example 574 Isomer C, 5-(((2S,5R)-5-(2-Oxo-2-(4-(5-(trifluoromethyl)pyrimidin-2-yl)piperazin-1-yl)ethyl)-tetrahydrofuran-2-yl)methoxy)-4-(trifluoromethyl)pyridazin-3(2H)-one], over 7.00.
The compound `O=C(C[C@@H]1CC[C@H](COc2cn[nH]c(=O)c2C(F)(F)F)O1)N1CCN(c2ncc(C(F)(F)F)cn2)CC1` [Example 574 Isomer D, 5-(((2R,5S)-5-(2-Oxo-2-(4-(5-(trifluoromethyl)pyrimidin-2-yl)piperazin-1-yl)ethyl)-tetrahydrofuran-2-yl)methoxy)-4-(trifluoromethyl)pyridazin-3(2H)-one] gave a pIC50 of over 7.00.
